Measured values reported in publication PMC4917279 (Journal of Medicinal Chemistry, 2016).

Legend:
Test in all cases: KINOMEscan
Type in all cases: binding
Details in all cases: read-out: %Ctrl @ 1000 nM
AAK1 = molecular target: T1, AAK1 (Homo sapiens, UniProt Q2M2I8)
T1 construct: purchased DiscoveRx (KINOMEscan service)

[1] = molecular target: T2, ABL1(F317I)-phosphorylated (Homo sapiens, UniProt P00519, F317I)
T2 construct: purchased DiscoveRx (KINOMEscan service)

[2] = molecular target: T3, ABL1(T315I)-phosphorylated (Homo sapiens, UniProt P00519, T315I)
T3 construct: purchased DiscoveRx

ABL1-phosphorylated = molecular target: T4, ABL1-phosphorylated (Homo sapiens, UniProt P00519)
T4 construct: purchased DiscoveRx

AKT2 = molecular target: T5, AKT2 (Homo sapiens, UniProt P31751)
T5 construct: purchased DiscoveRx KINOMEscan

CAMK2B = molecular target: T6, CAMK2B (Homo sapiens, UniProt Q13554)
T6 construct: purchased DiscoveRx KINOMEscan

CDC2L1 = molecular target: T7, CDC2L1 (Homo sapiens, UniProt P21127)
T7 construct: purchased DiscoveRx KINOMEscan

CDK4-cyclinD3 = molecular target: T8, CDK4-cyclinD3 (Homo sapiens, UniProt P11802)
T8 construct: purchased DiscoveRx KINOMEscan

CSNK2A2 = molecular target: T9, CSNK2A2 (Homo sapiens, UniProt P19784)
T9 construct: purchased DiscoveRx KINOMEscan

DDR2 = molecular target: T10, DDR2 (Homo sapiens, UniProt Q16832)
T10 construct: purchased DiscoveRx KINOMEscan

EGFR(L861Q) = molecular target: T11, EGFR(L861Q) (Homo sapiens, UniProt P00533, L861Q)
T11 construct: purchased DiscoveRx KINOMEscan
T11 sequence (P00533 25-1210 L861Q): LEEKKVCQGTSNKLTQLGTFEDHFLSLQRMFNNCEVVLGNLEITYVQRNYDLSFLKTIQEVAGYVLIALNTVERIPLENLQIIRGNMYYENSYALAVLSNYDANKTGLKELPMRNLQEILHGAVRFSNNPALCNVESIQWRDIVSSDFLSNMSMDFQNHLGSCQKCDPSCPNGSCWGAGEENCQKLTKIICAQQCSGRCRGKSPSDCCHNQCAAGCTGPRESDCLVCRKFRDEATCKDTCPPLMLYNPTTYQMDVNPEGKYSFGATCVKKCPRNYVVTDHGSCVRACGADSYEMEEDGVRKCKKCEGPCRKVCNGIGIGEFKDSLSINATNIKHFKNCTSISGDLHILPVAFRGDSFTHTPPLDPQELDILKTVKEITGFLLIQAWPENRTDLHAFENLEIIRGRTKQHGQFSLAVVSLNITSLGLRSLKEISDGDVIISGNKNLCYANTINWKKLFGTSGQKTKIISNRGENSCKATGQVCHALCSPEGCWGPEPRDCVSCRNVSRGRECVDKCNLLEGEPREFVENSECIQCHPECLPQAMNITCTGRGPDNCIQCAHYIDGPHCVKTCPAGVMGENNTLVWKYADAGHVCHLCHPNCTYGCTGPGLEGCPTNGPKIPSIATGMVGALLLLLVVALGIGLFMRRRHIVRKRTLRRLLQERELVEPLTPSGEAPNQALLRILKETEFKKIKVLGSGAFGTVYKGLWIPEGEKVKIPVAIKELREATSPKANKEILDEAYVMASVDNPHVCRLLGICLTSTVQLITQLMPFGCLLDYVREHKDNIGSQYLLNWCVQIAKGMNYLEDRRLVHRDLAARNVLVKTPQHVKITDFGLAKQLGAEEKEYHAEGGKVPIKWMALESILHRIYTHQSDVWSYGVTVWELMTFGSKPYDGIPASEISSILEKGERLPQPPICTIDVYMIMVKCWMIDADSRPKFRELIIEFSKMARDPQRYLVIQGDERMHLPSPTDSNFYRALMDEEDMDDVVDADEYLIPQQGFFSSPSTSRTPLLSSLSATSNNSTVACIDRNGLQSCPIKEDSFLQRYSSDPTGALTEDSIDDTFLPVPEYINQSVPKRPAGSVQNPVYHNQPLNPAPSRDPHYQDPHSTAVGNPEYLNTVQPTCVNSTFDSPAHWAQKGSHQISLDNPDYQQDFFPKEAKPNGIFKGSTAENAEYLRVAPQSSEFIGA

EIF2AK1 = molecular target: T12, EIF2AK1 (Homo sapiens, UniProt Q9BQI3)
T12 construct: purchased DiscoveRx KINOMEscan

EPHB1 = molecular target: T13, EPHB1 (Homo sapiens, UniProt P54762)
T13 construct: purchased DiscoveRx KINOMEscan
T13 sequence (P54762 18-984): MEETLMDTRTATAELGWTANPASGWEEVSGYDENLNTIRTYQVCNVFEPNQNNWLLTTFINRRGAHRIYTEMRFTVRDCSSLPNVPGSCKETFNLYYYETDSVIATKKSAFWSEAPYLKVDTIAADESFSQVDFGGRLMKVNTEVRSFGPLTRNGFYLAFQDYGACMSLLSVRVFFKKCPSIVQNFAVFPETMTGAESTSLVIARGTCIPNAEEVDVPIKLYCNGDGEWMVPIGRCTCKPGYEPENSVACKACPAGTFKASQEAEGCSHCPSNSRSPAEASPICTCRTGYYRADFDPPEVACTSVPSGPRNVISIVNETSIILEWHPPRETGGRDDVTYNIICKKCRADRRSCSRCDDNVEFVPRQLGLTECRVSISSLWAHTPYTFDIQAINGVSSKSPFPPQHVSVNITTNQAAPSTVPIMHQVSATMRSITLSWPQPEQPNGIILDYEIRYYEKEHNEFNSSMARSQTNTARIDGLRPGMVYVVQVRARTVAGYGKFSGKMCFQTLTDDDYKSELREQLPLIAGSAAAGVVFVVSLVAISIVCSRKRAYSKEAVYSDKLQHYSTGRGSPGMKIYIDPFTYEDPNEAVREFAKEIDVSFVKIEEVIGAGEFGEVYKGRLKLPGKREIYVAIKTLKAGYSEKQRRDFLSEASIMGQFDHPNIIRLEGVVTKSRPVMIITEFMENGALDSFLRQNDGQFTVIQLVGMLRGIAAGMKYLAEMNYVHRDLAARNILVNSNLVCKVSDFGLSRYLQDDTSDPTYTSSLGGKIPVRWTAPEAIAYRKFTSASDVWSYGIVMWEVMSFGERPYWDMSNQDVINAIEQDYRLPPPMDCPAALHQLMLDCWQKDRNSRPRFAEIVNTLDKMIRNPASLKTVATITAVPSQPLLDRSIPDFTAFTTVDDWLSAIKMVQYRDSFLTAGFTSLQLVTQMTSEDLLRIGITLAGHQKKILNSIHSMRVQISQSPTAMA

ERK4 = molecular target: T14, ERK4 (Homo sapiens, UniProt P31152)
T14 construct: purchased DiscoveRx KINOMEscan

FGFR1 = molecular target: T15, FGFR1 (Homo sapiens, UniProt P11362)
T15 construct: purchased DiscoveRx KINOMEscan

FLT3-autoinhibited = molecular target: T16, FLT3-autoinhibited (Homo sapiens, UniProt P36888)
T16 construct: purchased DiscoveRx KINOMEscan

HPK1 = molecular target: T17, HPK1 (Homo sapiens, UniProt Q92918)
T17 construct: purchased DiscoveRx KINOMEscan

LKB1 = molecular target: T18, LKB1 (Homo sapiens, UniProt Q15831)
T18 construct: purchased DiscoveRx KINOMEscan

LTK = molecular target: T19, LTK (Homo sapiens, UniProt P29376)
T19 construct: purchased DiscoveRx KINOMEscan

MAP4K2 = molecular target: T20, MAP4K2 (Homo sapiens, UniProt Q12851)
T20 construct: purchased DiscoveRx KINOMEscan

MAPKAPK5 = molecular target: T21, MAPKAPK5 (Homo sapiens, UniProt Q8IW41)
T21 construct: purchased DiscoveRx KINOMEscan
T21 sequence (Q8IW41 whole entry): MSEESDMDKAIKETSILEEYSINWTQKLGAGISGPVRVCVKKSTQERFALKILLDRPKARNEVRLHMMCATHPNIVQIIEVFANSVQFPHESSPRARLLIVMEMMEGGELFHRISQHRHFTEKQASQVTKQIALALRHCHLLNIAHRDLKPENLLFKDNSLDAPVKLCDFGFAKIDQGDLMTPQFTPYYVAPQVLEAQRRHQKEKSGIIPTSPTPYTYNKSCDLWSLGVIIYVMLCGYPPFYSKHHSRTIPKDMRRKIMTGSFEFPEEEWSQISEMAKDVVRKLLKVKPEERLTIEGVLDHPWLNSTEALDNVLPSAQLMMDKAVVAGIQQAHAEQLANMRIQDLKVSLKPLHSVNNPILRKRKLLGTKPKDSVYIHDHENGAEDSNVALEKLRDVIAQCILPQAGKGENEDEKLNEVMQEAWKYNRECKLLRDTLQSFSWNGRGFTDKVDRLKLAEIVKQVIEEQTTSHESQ

MYLK = molecular target: T22, MYLK (Homo sapiens, UniProt Q15746)
T22 construct: purchased DiscoveRx KINOMEscan

MYO3B = molecular target: T23, MYO3B (Homo sapiens, UniProt Q8WXR4)
T23 construct: purchased DiscoveRx KINOMEscan

NDR1 = molecular target: T24, NDR1 (Homo sapiens, UniProt Q15208)
T24 construct: purchased DiscoveRx KINOMEscan

NDR2 = molecular target: T25, NDR2 (Homo sapiens, UniProt Q9Y2H1)
T25 construct: purchased DiscoveRx KINOMEscan
T25 sequence (Q9Y2H1 whole entry): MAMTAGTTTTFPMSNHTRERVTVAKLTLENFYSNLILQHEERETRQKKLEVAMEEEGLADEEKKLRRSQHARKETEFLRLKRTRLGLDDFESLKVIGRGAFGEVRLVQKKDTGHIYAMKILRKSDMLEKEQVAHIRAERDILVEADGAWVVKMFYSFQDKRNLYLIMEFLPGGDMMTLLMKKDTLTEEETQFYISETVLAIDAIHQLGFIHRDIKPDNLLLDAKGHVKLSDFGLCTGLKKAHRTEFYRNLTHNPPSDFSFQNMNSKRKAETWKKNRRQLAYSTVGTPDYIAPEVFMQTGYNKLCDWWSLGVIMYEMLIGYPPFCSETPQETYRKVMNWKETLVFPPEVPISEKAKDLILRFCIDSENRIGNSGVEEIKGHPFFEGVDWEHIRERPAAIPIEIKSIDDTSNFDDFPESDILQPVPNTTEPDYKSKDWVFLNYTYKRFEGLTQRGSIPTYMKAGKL

p38-gamma = molecular target: T26, p38-gamma (Homo sapiens, UniProt P53778)
T26 construct: purchased DiscoveRx KINOMEscan

PAK7 = molecular target: T27, PAK7 (Homo sapiens, UniProt Q9P286)
T27 construct: purchased DiscoveRx KINOMEscan

PCTK3 = molecular target: T28, PCTK3 (Homo sapiens, UniProt Q07002)
T28 construct: purchased DiscoveRx KINOMEscan
T28 sequence (Q07002 whole entry): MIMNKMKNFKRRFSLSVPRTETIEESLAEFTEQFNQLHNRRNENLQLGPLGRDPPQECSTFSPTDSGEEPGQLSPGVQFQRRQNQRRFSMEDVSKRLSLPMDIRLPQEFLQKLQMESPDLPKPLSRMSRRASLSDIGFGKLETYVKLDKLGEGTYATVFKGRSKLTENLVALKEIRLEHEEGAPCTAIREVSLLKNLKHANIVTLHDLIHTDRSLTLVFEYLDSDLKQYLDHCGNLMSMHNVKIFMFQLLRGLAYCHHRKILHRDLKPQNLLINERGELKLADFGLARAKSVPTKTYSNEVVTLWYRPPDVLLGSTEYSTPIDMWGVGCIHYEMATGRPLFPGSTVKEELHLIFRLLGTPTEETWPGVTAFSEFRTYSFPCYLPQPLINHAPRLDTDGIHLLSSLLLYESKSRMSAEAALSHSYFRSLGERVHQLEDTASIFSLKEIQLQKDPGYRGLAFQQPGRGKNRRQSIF

PFTAIRE2 = molecular target: T29, PFTAIRE2 (Homo sapiens, UniProt Q96Q40)
T29 construct: purchased DiscoveRx KINOMEscan

PHKG1 = molecular target: T30, PHKG1 (Homo sapiens, UniProt Q16816)
T30 construct: purchased DiscoveRx KINOMEscan
T30 sequence (Q16816 whole entry): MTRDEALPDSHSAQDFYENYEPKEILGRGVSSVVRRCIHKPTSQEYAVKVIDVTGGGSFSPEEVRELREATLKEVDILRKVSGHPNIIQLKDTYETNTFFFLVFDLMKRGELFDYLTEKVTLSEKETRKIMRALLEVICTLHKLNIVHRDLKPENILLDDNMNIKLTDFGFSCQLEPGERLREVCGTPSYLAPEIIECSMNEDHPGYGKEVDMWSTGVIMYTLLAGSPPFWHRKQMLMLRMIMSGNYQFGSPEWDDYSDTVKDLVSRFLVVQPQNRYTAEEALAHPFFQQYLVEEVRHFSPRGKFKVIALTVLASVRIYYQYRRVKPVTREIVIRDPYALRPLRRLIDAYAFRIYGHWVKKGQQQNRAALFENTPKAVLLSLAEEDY

PIK3CA = molecular target: T31, PIK3CA (Homo sapiens, UniProt P42336)
T31 construct: purchased DiscoveRx KINOMEscan

PIK3CG = molecular target: T32, PIK3CG (Homo sapiens, UniProt P48736)
T32 construct: purchased DiscoveRx KINOMEscan

PIP5K1C = molecular target: T33, PIP5K1C (Homo sapiens, UniProt O60331)
T33 construct: purchased DiscoveRx KINOMEscan

PLK3 = molecular target: T34, PLK3 (Homo sapiens, UniProt Q9H4B4)
T34 construct: purchased DiscoveRx KINOMEscan

PRKD1 = molecular target: T35, PRKD1 (Homo sapiens, UniProt Q15139)
T35 construct: purchased DiscoveRx KINOMEscan

RIOK1 = molecular target: T36, RIOK1 (Homo sapiens, UniProt Q9BRS2)
T36 construct: purchased DiscoveRx KINOMEscan

RIPK1 = molecular target: T37, RIPK1 (Homo sapiens, UniProt Q13546)
T37 construct: purchased DiscoveRx KINOMEscan

[3] = molecular target: RPS6KA5(Kin.Dom.2-C-terminal) (Homo sapiens, UniProt O75582)
SRPK1 = molecular target: T38, SRPK1 (Homo sapiens, UniProt Q96SB4)
T38 construct: purchased DiscoveRx KINOMEscan

STK35 = molecular target: T39, STK35 (Homo sapiens, UniProt Q8TDR2)
T39 construct: purchased DiscoveRx KINOMEscan

TAK1 = molecular target: T40, TAK1 (Homo sapiens, UniProt O43318)
T40 construct: purchased DiscoveRx KINOMEscan

TNK2 = molecular target: T41, TNK2 (Homo sapiens, UniProt Q07912)
T41 construct: purchased DiscoveRx KINOMEscan

TRKC = molecular target: T42, TRKC (Homo sapiens, UniProt Q16288)
T42 construct: purchased DiscoveRx KINOMEscan

ULK1 = molecular target: T43, ULK1 (Homo sapiens, UniProt O75385)
T43 construct: purchased DiscoveRx KINOMEscan
T43 sequence (O75385 whole entry): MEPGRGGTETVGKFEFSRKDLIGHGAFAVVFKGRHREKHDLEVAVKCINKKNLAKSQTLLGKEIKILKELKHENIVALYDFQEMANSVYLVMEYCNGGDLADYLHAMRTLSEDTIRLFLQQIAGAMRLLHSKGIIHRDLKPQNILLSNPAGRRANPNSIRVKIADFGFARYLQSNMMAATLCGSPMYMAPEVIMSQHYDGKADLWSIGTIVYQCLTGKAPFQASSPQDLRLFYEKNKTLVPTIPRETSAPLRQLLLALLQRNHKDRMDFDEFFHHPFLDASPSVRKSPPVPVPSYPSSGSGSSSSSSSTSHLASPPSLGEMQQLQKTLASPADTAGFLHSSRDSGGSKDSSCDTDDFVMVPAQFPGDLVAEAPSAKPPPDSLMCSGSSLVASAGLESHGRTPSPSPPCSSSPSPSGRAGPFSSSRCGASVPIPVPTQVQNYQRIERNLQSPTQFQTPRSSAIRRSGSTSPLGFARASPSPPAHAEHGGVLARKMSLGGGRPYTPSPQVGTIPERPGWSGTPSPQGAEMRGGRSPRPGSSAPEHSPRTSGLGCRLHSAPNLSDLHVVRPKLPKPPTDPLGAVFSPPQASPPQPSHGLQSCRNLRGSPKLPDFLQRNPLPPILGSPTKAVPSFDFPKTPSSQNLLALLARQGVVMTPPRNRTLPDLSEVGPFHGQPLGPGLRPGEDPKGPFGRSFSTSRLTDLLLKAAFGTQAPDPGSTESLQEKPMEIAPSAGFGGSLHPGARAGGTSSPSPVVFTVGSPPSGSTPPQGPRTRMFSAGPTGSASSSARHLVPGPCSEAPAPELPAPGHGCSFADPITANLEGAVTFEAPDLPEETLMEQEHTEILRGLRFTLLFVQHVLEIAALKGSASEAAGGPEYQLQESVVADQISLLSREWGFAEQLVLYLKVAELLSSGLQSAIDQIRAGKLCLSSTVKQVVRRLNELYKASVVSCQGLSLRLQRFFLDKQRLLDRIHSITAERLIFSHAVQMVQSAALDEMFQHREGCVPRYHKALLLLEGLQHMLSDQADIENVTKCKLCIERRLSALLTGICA

## CCN(C(=O)CO)[C@H]1CN(/C(=N\C#N)Nc2cccc(OC(F)F)c2)N=C1c1ccc(Cl)c(Cl)c1 [(S)-4]
AAK1
  remaining binding at 1 µM: 78%
[1]
  remaining binding at 1 µM: 98%
[2]
  remaining binding at 1 µM: 100%
ABL1-phosphorylated
  remaining binding at 1 µM: 90%
AKT2
  remaining binding at 1 µM: 100%
CAMK2B
  remaining binding at 1 µM: 100%
CDC2L1
  remaining binding at 1 µM: 97%
CDK4-cyclinD3
  remaining binding at 1 µM: 100%
CSNK2A2
  remaining binding at 1 µM: 56%
DDR2
  remaining binding at 1 µM: 100%
EGFR(L861Q)
  remaining binding at 1 µM: 85%
EIF2AK1
  remaining binding at 1 µM: 100%
EPHB1
  remaining binding at 1 µM: 94%
ERK4
  remaining binding at 1 µM: 100%
FGFR1
  remaining binding at 1 µM: 59%
FLT3-autoinhibited
  remaining binding at 1 µM: 100%
HPK1
  remaining binding at 1 µM: 88%
LKB1
  remaining binding at 1 µM: 83%
LTK
  remaining binding at 1 µM: 65%
MAP4K2
  remaining binding at 1 µM: 96%
MAPKAPK5
  remaining binding at 1 µM: 100%
MYLK
  remaining binding at 1 µM: 86%
MYO3B
  remaining binding at 1 µM: 96%
NDR1
  remaining binding at 1 µM: 82%
NDR2
  remaining binding at 1 µM: 76%
p38-gamma
  remaining binding at 1 µM: 70%
PAK7
  remaining binding at 1 µM: 100%
PCTK3
  remaining binding at 1 µM: 92%
PFTAIRE2
  remaining binding at 1 µM: 100%
PHKG1
  remaining binding at 1 µM: 97%
PIK3CA
  remaining binding at 1 µM: 97%
PIK3CG
  remaining binding at 1 µM: 90%
PIP5K1C
  remaining binding at 1 µM: 86%
PLK3
  remaining binding at 1 µM: 89%
PRKD1
  remaining binding at 1 µM: 86%
RIOK1
  remaining binding at 1 µM: 77%
RIPK1
  remaining binding at 1 µM: 76%
[3]
  remaining binding at 1 µM: 99%
SRPK1
  remaining binding at 1 µM: 57%
STK35
  remaining binding at 1 µM: 100%
TAK1
  remaining binding at 1 µM: 100%
TNK2
  remaining binding at 1 µM: 96%
TRKC
  remaining binding at 1 µM: 55%
ULK1
  remaining binding at 1 µM: 64%
